Structures are written as SMILES. Read-outs that look alike come from different tables or passages of the source.

[1] abbreviates: in water, ionic strength 0 to 0.1 mole/liter, 25° C.

In the case of `O=C(O)c1ccccc1Br` [o-bromobenzoic acid], the pKa (in general, the pH at which an ionisable group is half protonated) (water) amounted to 2.85.

On to `Cc1cccc(C(=O)O)c1` [m-methylbenzoic acid, reference compound], for which the pKa (water) is on record as 4.27.

As to `CNc1ccccc1C(=O)O` [N-methylanthranilic acid], the pKa under setting [1] came to 5.34.

Take `COc1ccccc1C(=O)O` [o-methoxybenzoic acid]: the pKa under setting [1] is recorded as 4.09.

As to `O=C(O)c1c(F)cccc1F` [2,6-difluorobenzoic acid], where the note is “water”, the pKa was determined as 2.31.

Turning to `CC(=O)c1ccc(C(=O)O)cc1` [p-acetylbenzoic acid], under “water”, the pKa was found to be 3.70.

`CC(=O)c1ccccc1C(=O)O` [o-acetylbenzoic acid] displayed a pKa (water) of 3.79.

For the compound `O=C(O)c1c(F)c(F)c(F)c(F)c1F` [pentafluorobenzoic acid, reference compound], the pKa (water) came out at 1.48.

In the case of `O=C(O)c1c(Cl)cccc1Cl` [2,6-dichlorobenzoic acid], the pKa under setting [1] amounted to 1.82.

In turn, `O=C(O)c1cccc(Cl)c1` [m-chlorobenzoic acid] displayed a pKa under setting [1] of 3.82.

`O=C(O)c1ccccc1Cl` [o-chlorobenzoic acid] showed a pKa (water) of 2.92.

`O=C(O)c1ccc(Cl)c(Cl)c1` [3,4-dichlorobenzoic acid] gave a pKa under setting [1] of 3.64.

`N#Cc1cccc(C(=O)O)c1` [m-cyanobenzoic acid] had a pKa under setting [1] of 3.60. The pKa values of the last two compounds are within 0.2 log units of each other.

Consider `O=C(O)c1cccc(C(F)(F)F)c1` [m-trifluoromethylbenzoic acid], for which the pKa (water) is recorded as 3.77.

For the compound `Nc1ccccc1C(=O)O` [Anthranilic acid], the pKa under setting [1] stood at 4.79.

The compound `O=C(O)c1ccccc1F` [o-fluorobenzoic acid] displayed a pKa under setting [1] of 3.27.

As to `O=C(O)c1ccccc1-c1ccccc1` [o-phenylbenzoic acid], the pKa (water) was found to be 3.46.

The values are drawn from patent US5466858A, “Method of producing straight-chain acrylonitrile dimers” (priority 1993, dated 1995).
